Values joined by “and” are separate entries in the source; they are usually repeats but may differ in a detail not shown here. Equal entries are not always repeated.
System: CN0375-F725-PDC multi-cell spheroids, viability
Assay: Anticancer human tumor CN0375-F725-PDC patient-derived colon carcinoma cell line growth inhibition [TAK]
Conditions: for viability, T/C: stronger effect = lower value
Text: Combinatorial screen of targeted agents with TAK-243 and ipatasertib in multi-cell type tumor spheroids
A high-throughput screen of multi-cell type tumor spheroids was designed to identify active combinations of targeted small molecules and TAK-243 or ipatasertib. Complex spheroids include a stromal component modeled by human endothelial cells (HUVEC) and fibroblasts modeled by human mesenchymal stem cells (MSCs). The concentration ranges selected for each drug and investigational agent were based upon clinically achievable concentrations if the clinical Cmax of the agent was known.
Compounds. The drugs and investigational agents: TAK-243 (785004), ipatasertib (767898), everolimus (733504), selumetinib (741078), bortezomib (756655), trametinib (758246), ixazomib (758254), vemurafenib (761431), dabrafenib (764134), sapanisertib (764658), alpelisib (765974), and copanlisib (816437), were obtained from the National Cancer Institute (NCI) Developmental Therapeutics Program Chemical Repository. The FDA-approved anticancer drug set is available from the NCI Developmental Therapeutics Program. […] The stock solutions were prepared in dimethyl sulfoxide (DMSO, Sigma-Aldrich, St. Louis, MO, cat. D2650) at 800-fold the tested concentration and stored at -70 degrees C prior to their use. All drugs and investigational agents were tested over a range starting from a high concentration at or near the clinical Cmax and decreasing in half-log increments. If the clinical Cmax for an agent had not been determined, the highest concentration tested was 10 microM.
NCI60 Cell Culture. NCI60 cell lines were obtained from the NCI Developmental Therapeutics Program Tumor Repository. For each lot of cells, the Repository performed Applied Biosystems AmpFLSTR Identifiler testing with PCR amplification to confirm consistency with the published Identifier STR profile for each cell line. Cells were kept in continuous culture for no more than 20 passages. The optimal seeding densities for each of the cell lines at each time point assessed were determined prior to performing the concentration response studies. Briefly, the NCI60 human tumor lines were grown as monolayers in RPMI 1640 medium supplemented with 10% FBS and 2 mmol/L L-glutamine.
An additional 2 lines were from the NCI60 cell line panel including melanomas, MALME-3M and SK-MEL-2. Pooled donor human umbilical vein endothelial cells (HUVEC, Lonza, cat. CC-2519) and human mesenchymal stem cells (hMSC, Lonza, cat. PT-2501) were purchased from Lonza (Walkersville, MD).
PDMR cell lines were grown in complete medium (DC medium): Dulbecco's modified Eagle's medium (DMEM)/F12 supplemented with 5% fetal bovine serum (FBS), 2 mM L-glutamine, 100 U/mL penicillin and 100 µg/ml streptomycin, 0.4 µg/ml hydrocortisone, 10 ng/ml epidermal growth factor (EGF) recombinant human protein, 24 µg/mL adenine, and 0.1 mg/mL primocin. During culture from frozen stock vials, PDMR cells were cultured in the same medium containing 10 µM Y-27632 (see Table 3). The PDCs were cultured in complete DMEM/F12 media without 10 microM Y-27632 dihydrochloride for at least two passages prior to the screen. The pooled donor HUVEC and hMSC were cultured in endothelial cell growth medium 2 (PromoCell, Heidelberg, Germany, cat. C-22011) and mesenchymal stem cell growth medium 2 (PromoCell, cat. C-28009), respectively. For all experiments, HUVEC and hMSC were used at passages </=5.
For the pre-screen, cell seeding densities were determined from a titration spanning the range from 5,000 to 313 cells per well. The mct-spheroids including 60% malignant cells, 25% HUVEC and 15% MSC dispensed as a mixture into U-bottom Ultra-Low Attachment 384-well plates (Corning, NY)
High-throughput Drug Combination Screening.
Prior to their inoculation into 384-well plates, malignant cells, HUVEC, and hMSC were removed from T flasks using TrypLE express (Thermo Fisher Scientific, cat. 12605036) and harvested by centrifugation for 5 min at 233 x g. […]

[1] = curve of first compound, second compound 0.3 µM
[2] = curve of first compound, second compound 0.949 µM
[3] = curve of first compound, second compound 3 µM
[4] = curve of first compound, second compound 9.49 µM
[5] = curve of first compound, second compound 30 µM
[6] = second compound 0.3 µM, first compound 0.0316 µM
[7] = second compound 0.3 µM, first compound 0.1 µM
[8] = second compound 0.949 µM, first compound 0.0316 µM
[9] = second compound 0.949 µM, first compound 0.1 µM
[10] = second compound 3 µM, first compound 0.0316 µM
[11] = second compound 3 µM, first compound 0.1 µM
[12] = second compound 9.49 µM, first compound 0.0316 µM
[13] = second compound 9.49 µM, first compound 0.1 µM
[14] = second compound 30 µM, first compound 0.0316 µM
[15] = second compound 30 µM, first compound 0.1 µM
[16] = second compound 0.3 µM, first compound 0.316 µM
[17] = second compound 0.3 µM, first compound 1 µM
[18] = second compound 0.3 µM, first compound 3.16 µM
[19] = second compound 0.3 µM, first compound 10 µM
[20] = second compound 0.949 µM, first compound 0.316 µM
[21] = second compound 0.949 µM, first compound 1 µM
[22] = second compound 0.949 µM, first compound 3.16 µM
[23] = second compound 0.949 µM, first compound 10 µM
[24] = second compound 3 µM, first compound 0.316 µM
[25] = second compound 3 µM, first compound 1 µM
[26] = second compound 3 µM, first compound 3.16 µM
[27] = second compound 3 µM, first compound 10 µM
[28] = second compound 9.49 µM, first compound 0.316 µM
[29] = second compound 9.49 µM, first compound 1 µM
[30] = second compound 9.49 µM, first compound 3.16 µM
[31] = second compound 9.49 µM, first compound 10 µM
[32] = second compound 30 µM, first compound 0.316 µM
[33] = second compound 30 µM, first compound 1 µM
[34] = second compound 30 µM, first compound 3.16 µM
[35] = second compound 30 µM, first compound 10 µM
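Note: spheroids exposed to drugs for seven days.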
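Throughout, for viability, T/C: 100% = DMSO vehicle control wells.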

In the case of `CC(=O)Nc1cccc(-n2c(=O)n(C3CC3)c(=O)c3c(Nc4ccc(I)cc4F)n(C)c(=O)c(C)c32)c1`, the viability, T/C (compound 94.9 pM) is reported as 106% and 100%, the viability, T/C (compound 0.0003 µM) is reported as 96.5% and 91.6% and the viability, T/C (compound 0.000949 µM) is reported as 78.1% and 77.9%. The viability, T/C (compound 0.003 µM) was 67.4% and 64.9%, the viability, T/C (compound 0.00949 µM) was 52.9% and 52.8% and the viability, T/C (compound 0.03 µM) was 35.6% and 38.6%. For the same compound, the IC50 (curve of compound) was 10.6 nM and 11.2 nM.
In the case of `CC(C)CC(NC(=O)CNC(=O)c1cc(Cl)ccc1Cl)B1OC(=O)CC(CC(=O)O)(C(=O)O)O1` (configuration not stated) + CC(C)NCC(C(=O)N1CCN(c2ncnc3c2C(C)CC3O)CC1)c1ccc(Cl)cc1, the IC50 [1] is reported as 49.3 nM, the IC50 [2] is reported as 43.2 nM and the IC50 [3] is reported as 45.8 nM. For the same compound, the IC50 [4] was 30.6 nM, the IC50 [5] was 17.5 nM and the viability, T/C (second compound 0.3 µM, first compound 0.000316 µM) was 102%. For the same compound, the viability, T/C (second compound 0.3 µM, first compound 0.001 µM) was 104%, the viability, T/C (second compound 0.3 µM, first compound 0.00316 µM) was 108% and the viability, T/C (second compound 0.3 µM, first compound 0.01 µM) was 99.4%. The viability, T/C [6] was 68.4%, the viability, T/C [7] was 20.7% and the viability, T/C (second compound 0.949 µM, first compound 0.000316 µM) was 102%. For the same compound, the viability, T/C (second compound 0.949 µM, first compound 0.001 µM) was 99.8%, the viability, T/C (second compound 0.949 µM, first compound 0.00316 µM) was 102% and the viability, T/C (second compound 0.949 µM, first compound 0.01 µM) was 98.8%. For the same compound, the viability, T/C [8] was 60.3%, the viability, T/C [9] was 22.4% and the viability, T/C (second compound 3 µM, first compound 0.000316 µM) was 91.8%. It also gave a viability, T/C (second compound 3 µM, first compound 0.001 µM) of 101%, a viability, T/C (second compound 3 µM, first compound 0.00316 µM) of 96.7% and a viability, T/C (second compound 3 µM, first compound 0.01 µM) of 101%. It also gave a viability, T/C [10] of 65.9%, a viability, T/C [11] of 16.4% and a viability, T/C (second compound 9.49 µM, first compound 0.000316 µM) of 86%. The viability, T/C (second compound 9.49 µM, first compound 0.001 µM) was 92.5%, the viability, T/C (second compound 9.49 µM, first compound 0.00316 µM) was 93.4% and the viability, T/C (second compound 9.49 µM, first compound 0.01 µM) was 93.6%. For the same compound, the viability, T/C [12] was 48.8%, the viability, T/C [13] was 15.6% and the viability, T/C (second compound 30 µM, first compound 0.000316 µM) was 77.9%. It also gave a viability, T/C (second compound 30 µM, first compound 0.001 µM) of 91.7%, a viability, T/C (second compound 30 µM, first compound 0.00316 µM) of 88.2% and a viability, T/C (second compound 30 µM, first compound 0.01 µM) of 76.2%. The viability, T/C [14] was 22.2% and the viability, T/C [15] was 5.95%.
With `Cc1nc(NC(=O)N2CCCC2C(N)=O)sc1-c1ccnc(C(C)(C)C(F)(F)F)c1` (configuration not stated) + CC(C)NCC(C(=O)N1CCN(c2ncnc3c2C(C)CC3O)CC1)c1ccc(Cl)cc1 the IC50 [1] was > 10000 nM, the IC50 [2] was > 10000 nM and the IC50 [3] was > 10000 nM. The IC50 [4] was 9460 nM, the IC50 [5] was 4990 nM and the viability, T/C [6] was 102%. The viability, T/C [7] was 95.6%, the viability, T/C [16] was 89.5% and the viability, T/C [17] was 82.1%. For the same compound, the viability, T/C [18] was 74.4%, the viability, T/C [19] was 52.5% and the viability, T/C [8] was 101%. For the same compound, the viability, T/C [9] was 97.7%, the viability, T/C [20] was 94.4% and the viability, T/C [21] was 88.7%. It also gave a viability, T/C [22] of 74.3%, a viability, T/C [23] of 57.9% and a viability, T/C [10] of 98.6%. The viability, T/C [11] was 98.4%, the viability, T/C [24] was 86.7% and the viability, T/C [25] was 81.8%. The viability, T/C [26] was 71.7%, the viability, T/C [27] was 51.6% and the viability, T/C [12] was 89.4%. For the same compound, the viability, T/C [13] was 94.5%, the viability, T/C [28] was 88.1% and the viability, T/C [29] was 79.5%. For the same compound, the viability, T/C [30] was 66.7%, the viability, T/C [31] was 49% and the viability, T/C [14] was 80%. It also gave a viability, T/C [15] of 82%, a viability, T/C [32] of 71.7% and a viability, T/C [33] of 67.4%. The viability, T/C [34] was 59.9% and the viability, T/C [35] was 37.9%.
`CCCS(=O)(=O)Nc1ccc(F)c(C(=O)c2c[nH]c3ncc(-c4ccc(Cl)cc4)cc23)c1F` + CC(C)NCC(C(=O)N1CCN(c2ncnc3c2C(C)CC3O)CC1)c1ccc(Cl)cc1 was tested, and the IC50 [1] was > 100000 nM, the IC50 [2] was > 100000 nM and the IC50 [3] was > 100000 nM. The IC50 [4] was 8150 nM, the IC50 [5] was 3750 nM and the viability, T/C [16] was 105%. For the same compound, the viability, T/C [17] was 120%, the viability, T/C [18] was 106% and the viability, T/C [19] was 66.1%. The viability, T/C (second compound 0.3 µM, first compound 31.6 µM) was 26.5%, the viability, T/C (second compound 0.3 µM, first compound 100 µM) was 121% and the viability, T/C [20] was 101%. It also gave a viability, T/C [21] of 109%, a viability, T/C [22] of 99.8% and a viability, T/C [23] of 58.8%. The viability, T/C (second compound 0.949 µM, first compound 31.6 µM) was 10.6%, the viability, T/C (second compound 0.949 µM, first compound 100 µM) was 105% and the viability, T/C [24] was 98.2%. For the same compound, the viability, T/C [25] was 110%, the viability, T/C [26] was 89% and the viability, T/C [27] was 54.7%. For the same compound, the viability, T/C (second compound 3 µM, first compound 31.6 µM) was 9.13%, the viability, T/C (second compound 3 µM, first compound 100 µM) was 99.8% and the viability, T/C [28] was 95.7%. The viability, T/C [29] was 95.5%, the viability, T/C [30] was 79.8% and the viability, T/C [31] was 24.1%. The viability, T/C (second compound 9.49 µM, first compound 31.6 µM) was 27.2%, the viability, T/C (second compound 9.49 µM, first compound 100 µM) was 79.5% and the viability, T/C [32] was 86%. It also gave a viability, T/C [33] of 82.2%, a viability, T/C [34] of 54.7% and a viability, T/C [35] of 13.9%. For the same compound, the viability, T/C (second compound 30 µM, first compound 31.6 µM) was 2.73% and the viability, T/C (second compound 30 µM, first compound 100 µM) was 52.6%.
